According to US8802665B2, “Pyrrolidine derivatives” (Hoffman-La Roche Inc., priority 2012, dated 2014):
Counter-ions that a name gives are not always drawn.

biological target: human Cat S (Homo sapiens (Human), UniProt P25774); test: Cathepsin enzyme inhibition assay (fluorogenic peptide substrate cleavage); assay type: biochemical; settings: human Cathepsin S 1 nM, substrate Z-Val-Val-Arg-AMC 20 μM, pH 6.5; read-out: Ic50 CatS: human
Procedure: Cathepsin Enzyme Inhibition Assay
Enzyme activity is measured by observing the increase in fluorescence intensity caused by cleavage of a peptide substrate containing a fluorophore whose emission is quenched in the intact peptide. • Assay buffer: 100 mM potassium phosphate pH 6.5, EDTA-Na 5 mM, Triton X-100 0.001%, DTT 5 mM. • Enzymes (all at 1 nM): human and mouse Cathepsin S, Cat K, Cat B, Cat L. • Substrate (20 μM): Z-Val-Val-Arg-AMC, except for Cat K which uses Z-Leu-Arg-AMC (both from Bachem). • Z=Benzyloxycarbonyl. • AMC=7-Amino-4-Methyl-Coumarin. • DTT=dithiothreitol. • Final volume: 100 μL. • Excitation 360 nm, Emission 465 nm.
Enzyme is added to the substance dilutions in 96-well microtitre plates and the reaction is started with substrate. Fluorescence emission is measured over 20 minutes, during which time a linear increase is observed in the absence of inhibitor. IC50 are calculated by standard methods.
Inhibition of human Cat S, mouse Cat S, human Cat K, human Cat B, human Cat L and mouse Cat L have been measured separately. The results obtained for human Cat S for representative compounds of the invention are expressed in the following table in μM.

human Cat S, sequence (P25774 115-331): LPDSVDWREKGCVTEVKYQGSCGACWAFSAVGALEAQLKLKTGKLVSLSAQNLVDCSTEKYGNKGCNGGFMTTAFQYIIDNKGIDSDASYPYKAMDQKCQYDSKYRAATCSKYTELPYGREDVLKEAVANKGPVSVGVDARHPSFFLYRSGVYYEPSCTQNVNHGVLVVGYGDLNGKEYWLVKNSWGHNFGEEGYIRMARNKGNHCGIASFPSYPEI

Compound	IC50
CCOC(=O)N1CCC(N2CCC2C(=O)N2C[C@H](Sc3ccc(F)cc3Cl)C[C@H]2C(=O)NC2(C#N)CC2)CC1 (stereo partly shown) [Example 13]	6.7 nM
CCOC(=O)N1CCC(N2CCC2C(=O)N2C[C@H](S(=O)(=O)c3ccc(F)cc3Cl)C[C@H]2C(=O)NC2(C#N)CC2)CC1 (stereo partly drawn) [Example 14, Ethyl 4-(2-((2S,4R)-4-(2-chloro-4-fluorophenylsulfonyl)-2-(1-cyanocyclopropylcarbamoyl)pyrrolidine-1-carbonyl)azetidin-1-yl)piperidine-1-carboxylate]	1.5 nM
CCOC(=O)N1CCC(N2CCC2C(=O)N2C[C@H](Sc3ccc(Cl)cc3)C[C@H]2C(=O)NC2(C#N)CC2)CC1 (stereo partly drawn) [Example 15, Ethyl 4-(2-((2S,4R)-4-(4-chlorophenylthio)-2-(1-cyanocyclopropylcarbamoyl)pyrrolidine-1-carbonyl)azetidin-1-yl)piperidine-1-carboxylate]	121 nM
CCOC(=O)N1CCC(N2CCC2C(=O)N2C[C@H](Sc3ccccc3OC)C[C@H]2C(=O)NC2(C#N)CC2)CC1 (stereo partly drawn) [Example 16, Ethyl 4-(2-((2S,4R)-2-(1-cyanocyclopropylcarbamoyl)-4-(2-methoxyphenylthio)pyrrolidine-1-carbonyl)azetidin-1-yl)piperidine-1-carboxylate]	1740 nM
CCOC(=O)N1CCC(N2CCC2C(=O)N2C[C@H](Sc3ccccc3OC(F)(F)F)C[C@H]2C(=O)NC2(C#N)CC2)CC1 (stereo partly drawn) [Example 17, Ethyl 4-(2-((2S,4R)-2-(1-cyanocyclopropylcarbamoyl)-4-(2-(trifluoromethoxy)phenylthio)pyrrolidine-1-carbonyl)azetidin-1-yl)piperidine-1-carboxylate]	65.5 nM
CCOC(=O)N1CCC(N2CCC2C(=O)N2C[C@H](Sc3cccc(C(F)(F)F)c3)C[C@H]2C(=O)NC2(C#N)CC2)CC1 (stereo partly drawn) [Example 18, Ethyl 4-(2-((2S,4R)-2-(1-cyanocyclopropylcarbamoyl)-4-(3-(trifluoromethyl)phenylthio)pyrrolidine-1-carbonyl)azetidin-1-yl)piperidine-1-carboxylate]	8 nM
CCOC(=O)N1CCC(N2CCC2C(=O)N2C[C@H](S(=O)(=O)c3cccc(Cl)c3)C[C@H]2C(=O)NC2(C#N)CC2)CC1 (stereo partly drawn) [Example 19, Ethyl 4-(2-((2S,4R)-4-(3-chlorophenylsulfonyl)-2-(1-cyanocyclopropylcarbamoyl)pyrrolidine-1-carbonyl)azetidin-1-yl)piperidine-1-carboxylate]	1.8 nM
CCOC(=O)N1CCC(N2CCC2C(=O)N2C[C@H](S(=O)(=O)c3ccc(C)cc3)C[C@H]2C(=O)NC2(C#N)CC2)CC1 (stereo partly drawn) [Example 20, Ethyl 4-(2-((2S,4R)-2-(1-cyanocyclopropylcarbamoyl)-4-tosylpyrrolidine-1-carbonyl)azetidin-1-yl)piperidine-1-carboxylate]	1.4 nM
CCOC(=O)N1CCC(N2CCC2C(=O)N2C[C@H](S(=O)(=O)c3ccccc3OC)C[C@H]2C(=O)NC2(C#N)CC2)CC1 (stereo partly drawn) [Example 21, Ethyl 4-(2-((2S,4R)-2-(1-cyanocyclopropylcarbamoyl)-4-(2-methoxyphenylsulfonyl)pyrrolidine-1-carbonyl)azetidin-1-yl)piperidine-1-carboxylate]	9.2 nM
CCOC(=O)N1CCC(N2CCC2C(=O)N2C[C@H](S(=O)(=O)c3ccc(Cl)cc3)C[C@H]2C(=O)NC2(C#N)CC2)CC1 (stereo partly drawn) [Example 22, Ethyl 4-(2-((2S,4R)-4-(4-chlorophenylsulfonyl)-2-(1-cyanocyclopropylcarbamoyl)pyrrolidine-1-carbonyl)azetidin-1-yl)piperidine-1-carboxylate]	2.8 nM
CCOC(=O)N1CCC(N2CCC2C(=O)N2C[C@H](S(=O)(=O)c3ccccc3OC(F)(F)F)C[C@H]2C(=O)NC2(C#N)CC2)CC1 (stereo partly drawn) [Example 23, Ethyl 4-(2-((2S,4R)-2-(1-cyanocyclopropylcarbamoyl)-4-(2-(trifluoromethoxy)phenylsulfonyl)pyrrolidine-1-carbonyl)azetidin-1-yl)piperidine-1-carboxylate]	4.1 nM
CCOC(=O)N1CCC(N2CCC2C(=O)N2C[C@H](S(=O)(=O)c3cccc(C(F)(F)F)c3)C[C@H]2C(=O)NC2(C#N)CC2)CC1 (stereo partly drawn) [Example 24, Ethyl 4-(2-((2S,4R)-2-(1-cyanocyclopropylcarbamoyl)-4-(3-(trifluoromethyl)phenylsulfonyl)pyrrolidine-1-carbonyl)azetidin-1-yl)piperidine-1-carboxylate]	1.6 nM

More lines, now with the values ahead:

IC50	Compound
1.7 nM	N#CC1(NC(=O)[C@@H]2C[C@@H](S(=O)(=O)c3ccccc3Cl)CN2C(=O)C2CCN2C2CCCCC2)CC1 (stereo partly drawn) [Example 1, (2S,4R)-4-(2-Chlorophenylsulfonyl)-N-(1-cyanocyclopropyl)-1-(1-cyclohexylazetidine-2-carbonyl)pyrrolidine-2-carboxamide]
1 nM	N#CC1(NC(=O)[C@@H]2C[C@@H](S(=O)(=O)c3ccccc3Cl)CN2C(=O)C2CCN2C2CCC(F)(F)CC2)CC1 (stereo partly drawn) [Example 2, (2S,4R)-4-(2-Chlorophenylsulfonyl)-N-(1-cyanocyclopropyl)-1-(1-(4,4-difluorocyclohexyl)azetidine-2-carbonyl)pyrrolidine-2-carboxamide]
3.8 nM	CC1(C)CCC(N2CCC2C(=O)N2C[C@H](S(=O)(=O)c3ccccc3Cl)C[C@H]2C(=O)NC2(C#N)CC2)CC1 (stereo partly drawn) [Example 3, (2S,4R)-4-(2-Chlorophenylsulfonyl)-N-(1-cyanocyclopropyl)-1-(1-(4,4-dimethylcyclohexyl)azetidine-2-carbonyl)pyrrolidine-2-carboxamide]
0.9 nM	Cc1nsc(N2CCC(N3CCC3C(=O)N3C[C@H](S(=O)(=O)c4ccccc4Cl)C[C@H]3C(=O)NC3(C#N)CC3)CC2)n1 (stereo partly drawn) [Example 4, (2S,4R)-4-(2-Chlorophenylsulfonyl)-N-(1-cyanocyclopropyl)-1-(1-(1-(3-methyl-1,2,4-thiadiazol-5-yl)piperidin-4-yl)azetidine-2-carbonyl)pyrrolidine-2-carboxamide formate]
0.8 nM	N#CC1(NC(=O)[C@@H]2C[C@@H](S(=O)(=O)c3ccccc3Cl)CN2C(=O)C2CCN2C2CCOCC2)CC1 (stereo partly drawn) [Example 5, (2S,4R)-4-(2-Chlorophenylsulfonyl)-N-(1-cyanocyclopropyl)-1-(1-(tetrahydro-2H-pyran-4-yl)azetidine-2-carbonyl)pyrrolidine-2-carboxamide formate]
1.3 nM	CC(=O)N1CCC(N2CCC2C(=O)N2C[C@H](S(=O)(=O)c3ccccc3Cl)C[C@H]2C(=O)NC2(C#N)CC2)CC1 (stereo partly drawn) [Example 6, (2S,4R)-1-(1-(1-Acetylpiperidin-4-yl)azetidine-2-carbonyl)-4-(2-chlorophenylsulfonyl)-N-(1-cyanocyclopropyl)pyrrolidine-2-carboxamide]
3.9 nM	N#CC1(NC(=O)[C@@H]2C[C@@H](S(=O)(=O)c3ccccc3Cl)CN2C(=O)C2CCN2C2CCN(CC(F)(F)F)CC2)CC1 (stereo partly drawn) [Example 7, (2S,4R)-4-(2-Chlorophenylsulfonyl)-N-(1-cyanocyclopropyl)-1-(1-(1-(2,2,2-trifluoroethyl)piperidin-4-yl)azetidine-2-carbonyl)pyrrolidine-2-carboxamide]
2.5 nM	CC1(C)CC(N2CCC2C(=O)N2C[C@H](S(=O)(=O)c3ccccc3Cl)C[C@H]2C(=O)NC2(C#N)CC2)CCO1 (stereo partly drawn) [Example 8, (2S,4R)-4-(2-Chlorophenylsulfonyl)-N-(1-cyanocyclopropyl)-1-(1-(2,2-dimethyltetrahydro-2H-pyran-4-yl)azetidine-2-carbonyl)pyrrolidine-2-carboxamide]
2 nM	N#CC1(NC(=O)[C@@H]2C[C@@H](S(=O)(=O)c3ccccc3Cl)CN2C(=O)C2CCN2C2CCCC2)CC1 (stereo partly drawn) [Example 9, (2S,4R)-4-(2-Chlorophenylsulfonyl)-N-(1-cyanocyclopropyl)-1-(1-cyclopentylazetidine-2-carbonyl)pyrrolidine-2-carboxamide]
2.2 nM	N#CC1(NC(=O)[C@@H]2C[C@@H](S(=O)(=O)c3ccccc3Cl)CN2C(=O)C2CCN2C2CCSCC2)CC1 (stereo partly drawn) [Example 10, (2S,4R)-4-(2-Chlorophenylsulfonyl)-N-(1-cyanocyclopropyl)-1-(1-(tetrahydro-2H-thiopyran-4-yl)azetidine-2-carbonyl)pyrrolidine-2-carboxamide]
1.7 nM	CCOC(=O)N1CCC(N2CCC2C(=O)N2C[C@H](S(=O)(=O)c3ccccc3Cl)C[C@H]2C(=O)NC2(C#N)CC2)CC1 (stereo partly drawn) [Example 11, Ethyl 4-(2-((2S,4R)-4-(2-chlorophenylsulfonyl)-2-(1-cyanocyclopropylcarbamoyl)pyrrolidine-1-carbonyl)azetidin-1-yl)piperidine-1-carboxylate]
2.7 nM	CS(=O)(=O)N1CCC(N2CCC2C(=O)N2C[C@H](S(=O)(=O)c3ccccc3Cl)C[C@H]2C(=O)NC2(C#N)CC2)CC1 (stereo partly drawn) [Example 12, (2S,4R)-4-(2-Chlorophenylsulfonyl)-N-(1-cyanocyclopropyl)-1-(1-(1-(methylsulfonyl)piperidin-4-yl)azetidine-2-carbonyl)pyrrolidine-2-carboxamide]
0.5 nM	N#CC1(NC(=O)[C@@H]2C[C@@H](S(=O)(=O)c3ccccc3Cl)CN2C(=O)C2(N3CCCCC3)CC2)CC1 [Example 25, (2S,4R)-4-(2-Chlorophenylsulfonyl)-N-(1-cyanocyclopropyl)-1-(1-(piperidin-1-yl)cyclopropanecarbonyl)pyrrolidine-2-carboxamide]
